The target in data set [1] is B-Raf (Homo sapiens (Human), UniProt P15056). Put plainly: B-Raf kinase activity biochemical assay (AlphaScreen, biotin-MEK1 phosphorylation). The note with it: B-Raf. The gist of the method: (§1)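 Compounds from a 0.1 mM DMSO stock were tested at 8 serially diluted points. Kinase reactions with 100 μM ATP (final) ran 45 min at room temperature, then were stopped with EDTA buffer containing anti-phospho-MEK1/2 antibody plus streptavidin donor and protein A acceptor beads.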
Chain of B-Raf (Homo sapiens (Human), UniProt P15056) (P15056 whole entry): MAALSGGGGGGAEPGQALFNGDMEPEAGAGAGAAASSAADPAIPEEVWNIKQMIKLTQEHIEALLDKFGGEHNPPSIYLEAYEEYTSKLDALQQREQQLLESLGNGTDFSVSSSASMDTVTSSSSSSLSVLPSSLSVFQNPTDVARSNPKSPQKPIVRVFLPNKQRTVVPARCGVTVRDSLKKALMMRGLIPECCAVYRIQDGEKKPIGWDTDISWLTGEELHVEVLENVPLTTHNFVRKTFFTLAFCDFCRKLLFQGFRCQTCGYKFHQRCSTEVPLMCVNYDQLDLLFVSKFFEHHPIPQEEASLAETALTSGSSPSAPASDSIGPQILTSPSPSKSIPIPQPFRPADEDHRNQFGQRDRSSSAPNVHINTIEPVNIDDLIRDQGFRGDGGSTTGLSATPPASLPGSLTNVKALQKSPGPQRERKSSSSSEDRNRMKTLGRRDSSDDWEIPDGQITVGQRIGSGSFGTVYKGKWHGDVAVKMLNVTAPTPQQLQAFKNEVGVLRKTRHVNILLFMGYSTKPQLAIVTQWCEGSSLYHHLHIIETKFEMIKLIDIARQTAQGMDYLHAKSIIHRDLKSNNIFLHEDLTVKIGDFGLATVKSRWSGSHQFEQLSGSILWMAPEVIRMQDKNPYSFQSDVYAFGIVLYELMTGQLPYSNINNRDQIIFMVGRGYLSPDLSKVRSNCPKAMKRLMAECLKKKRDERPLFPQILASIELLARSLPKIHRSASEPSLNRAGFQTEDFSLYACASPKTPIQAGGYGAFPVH
A general note: Bead proximity is the source of the signal in Alpha formats.

The subject of data set [2] is B-Raf. Described as above. The note with it: for Biochemical activity ratio B/V600E: ratio of IC50 B-Raf / B-Raf V600E; for Biochemical activity ratio B/C: ratio of IC50 B-Raf / c-Raf-1. The gist of the method: as §1
The target of the next data set is B-Raf V600E (Homo sapiens (Human), UniProt P15056, V600E). Briefly: B-Raf V600E kinase activity biochemical assay (AlphaScreen, biotin-MEK1 phosphorylation). The note with it: for IC50: B-Raf V600E; for Biochemical activity ratio V600E/C: ratio of IC50 B-Raf V600E / c-Raf-1. The method in brief:
as §1

A further data set has as its target c-Raf-1 (Homo sapiens, UniProt P04049). Briefly: c-Raf-1 kinase activity biochemical assay (AlphaScreen, biotin-MEK1 phosphorylation). The method in brief:
as §1

Data set [3] is described as follows: Relative solubility by turbidity threshold concentration in aqueous buffers (pH 1.5, 4.5, 6.8, 7.4). Type of data set: physicochemical. The note with it: for turbidity threshold (L, M, H) 1.4: pH 1.4 [sic] (method: SGF pH 1.5); for turbidity threshold (L, M, H) 4.5: pH 4.5 (SIF); for turbidity threshold (L, M, H) 6.8: pH 6.8 (SIF); for turbidity threshold (L, M, H) 7.4: pH 7.4 (HEPES). The method in brief:
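Solubility class (high >250 μM, moderate 31.3–250 μM, low <31.3 μM) comes from the concentration where absorbance reaches a 0.01 threshold, averaged across 490/535/650 nm. Samples were compound dilutions from DMSO stock, 1 μL into 99 μL buffer at pH 1.5, 4.5, 6.8 or 7.4.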

The target of another data set is CYP1A2 (Homo sapiens (Human), UniProt P05177). Put plainly: CYP enzyme inhibition, fluorescent substrate (CEC). The method in brief: (§2)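 IC50 derived from loss of fluorescent metabolite across a 10-point 1:1 dilution series. CYP2D6: 1.5 pmol enzyme, 1.5 μM AMMC, 30 min at 37 °C, 409/530 nm; CYP1A2: 0.5 pmol, 5 μM CEC, 15 min, 409/460 nm. Compounds pre-incubated 10 min in NADPH-regenerating mix.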
Chain of CYP1A2 (P05177 whole entry): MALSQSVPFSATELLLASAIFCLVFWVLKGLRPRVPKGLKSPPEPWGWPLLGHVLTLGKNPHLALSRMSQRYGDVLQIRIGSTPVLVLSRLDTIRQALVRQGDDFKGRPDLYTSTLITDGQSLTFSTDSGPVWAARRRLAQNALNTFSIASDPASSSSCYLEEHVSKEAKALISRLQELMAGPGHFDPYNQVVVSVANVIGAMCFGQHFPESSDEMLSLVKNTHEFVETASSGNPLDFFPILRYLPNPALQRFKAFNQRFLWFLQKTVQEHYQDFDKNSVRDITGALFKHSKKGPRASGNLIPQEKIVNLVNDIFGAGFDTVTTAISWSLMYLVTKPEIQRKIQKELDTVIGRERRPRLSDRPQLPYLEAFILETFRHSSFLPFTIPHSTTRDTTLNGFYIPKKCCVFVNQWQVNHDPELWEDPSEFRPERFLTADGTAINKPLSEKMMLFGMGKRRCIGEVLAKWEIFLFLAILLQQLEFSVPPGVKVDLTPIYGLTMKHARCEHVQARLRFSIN

For the next data set, the target named is CYP2C19 (Homo sapiens (Human), UniProt P33261). Put plainly: CYP enzyme inhibition, fluorescent substrate (CEC). The gist of the method: (§3)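 First, 100 mM DMSO stocks are diluted into acetonitrile, then twofold through co-factor mix for 10 points. Next, mixtures are preincubated 10 min at 37 °C.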
Chain of CYP2C19 (P33261 whole entry): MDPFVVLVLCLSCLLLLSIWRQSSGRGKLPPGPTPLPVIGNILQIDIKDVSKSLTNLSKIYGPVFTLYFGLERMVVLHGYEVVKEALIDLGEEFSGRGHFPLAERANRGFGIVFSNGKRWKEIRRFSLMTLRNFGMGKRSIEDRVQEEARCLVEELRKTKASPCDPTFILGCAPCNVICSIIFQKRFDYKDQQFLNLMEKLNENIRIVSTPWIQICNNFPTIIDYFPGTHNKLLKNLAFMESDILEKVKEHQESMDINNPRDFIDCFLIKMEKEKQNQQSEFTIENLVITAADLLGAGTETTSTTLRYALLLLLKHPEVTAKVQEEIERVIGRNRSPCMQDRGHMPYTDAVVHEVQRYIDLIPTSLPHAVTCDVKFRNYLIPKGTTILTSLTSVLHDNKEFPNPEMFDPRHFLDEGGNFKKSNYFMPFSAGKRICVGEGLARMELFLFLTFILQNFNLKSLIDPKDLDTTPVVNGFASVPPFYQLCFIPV
The next data set has as its target CYP2C9 (Homo sapiens (Human), UniProt P11712). Put plainly: CYP enzyme inhibition, fluorescent substrate (MFC). The gist of the method:
as §3

A further data set has as its target CYP2D6 (Homo sapiens (Human), UniProt P10635). Put plainly: CYP enzyme inhibition, fluorescent substrate (AMMC). It counts as in vitro ADME. The note with it: read-out: Cyp IC50 2D6. The method in brief:
as §2

The target of the next data set is CYP3A4(BFC) (Homo sapiens (Human), UniProt P08684). Put plainly: CYP enzyme inhibition, fluorescent substrate BFC. The gist of the method:
as §3

A further data set has as its target CYP3A4(BQ) (Homo sapiens (Human), UniProt P08684). Briefly: CYP enzyme inhibition, fluorescent substrate BQ. The gist of the method:
as §3

The mark [4] stands for this setting: read-out: Cyp IC50 2C19, CYP2C19, substrate CEC.
[5] abbreviates: read-out: Cyp IC50 2C9, CYP2C9, substrate MFC.
[6] abbreviates: read-out: Cyp IC50 3A4(BFC), CYP3A4, substrate BFC.
Where [7] appears, read: read-out: Cyp IC50 3A4(BQ), CYP3A4, substrate BQ.

Read-outs that look alike come from different tables or passages of the source. Where only a bound is given, the exact number is not on record here.

Chain of CYP2D6 (P10635 whole entry): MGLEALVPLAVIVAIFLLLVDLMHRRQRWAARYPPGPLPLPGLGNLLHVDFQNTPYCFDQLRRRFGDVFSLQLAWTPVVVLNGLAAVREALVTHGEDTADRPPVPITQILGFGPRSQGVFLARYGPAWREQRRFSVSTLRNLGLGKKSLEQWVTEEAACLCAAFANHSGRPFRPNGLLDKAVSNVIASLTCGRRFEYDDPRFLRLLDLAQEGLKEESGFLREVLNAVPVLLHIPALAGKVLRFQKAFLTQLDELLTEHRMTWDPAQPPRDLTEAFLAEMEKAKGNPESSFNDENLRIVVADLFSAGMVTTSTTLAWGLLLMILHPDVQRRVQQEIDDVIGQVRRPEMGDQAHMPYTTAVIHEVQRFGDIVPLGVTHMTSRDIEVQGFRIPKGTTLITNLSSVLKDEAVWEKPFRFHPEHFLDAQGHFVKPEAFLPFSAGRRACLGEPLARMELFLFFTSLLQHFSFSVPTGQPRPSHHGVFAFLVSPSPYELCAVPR
Chain of CYP3A4(BFC) (P08684 whole entry): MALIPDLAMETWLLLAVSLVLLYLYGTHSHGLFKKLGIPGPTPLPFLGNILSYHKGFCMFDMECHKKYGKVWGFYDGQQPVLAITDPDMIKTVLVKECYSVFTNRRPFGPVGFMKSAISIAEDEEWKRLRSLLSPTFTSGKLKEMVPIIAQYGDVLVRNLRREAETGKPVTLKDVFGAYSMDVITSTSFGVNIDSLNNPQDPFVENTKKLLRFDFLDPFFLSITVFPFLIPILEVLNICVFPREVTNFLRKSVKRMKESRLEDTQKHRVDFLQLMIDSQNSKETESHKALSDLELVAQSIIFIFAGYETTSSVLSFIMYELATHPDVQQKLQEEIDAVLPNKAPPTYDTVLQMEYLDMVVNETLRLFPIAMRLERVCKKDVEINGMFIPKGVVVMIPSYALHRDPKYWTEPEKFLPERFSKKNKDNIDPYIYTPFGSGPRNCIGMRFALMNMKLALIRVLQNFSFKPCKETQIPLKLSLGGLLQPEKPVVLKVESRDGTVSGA
Chain of CYP3A4(BQ) (P08684 whole entry): as above
Chain of c-Raf-1 (P04049 whole entry, looked up): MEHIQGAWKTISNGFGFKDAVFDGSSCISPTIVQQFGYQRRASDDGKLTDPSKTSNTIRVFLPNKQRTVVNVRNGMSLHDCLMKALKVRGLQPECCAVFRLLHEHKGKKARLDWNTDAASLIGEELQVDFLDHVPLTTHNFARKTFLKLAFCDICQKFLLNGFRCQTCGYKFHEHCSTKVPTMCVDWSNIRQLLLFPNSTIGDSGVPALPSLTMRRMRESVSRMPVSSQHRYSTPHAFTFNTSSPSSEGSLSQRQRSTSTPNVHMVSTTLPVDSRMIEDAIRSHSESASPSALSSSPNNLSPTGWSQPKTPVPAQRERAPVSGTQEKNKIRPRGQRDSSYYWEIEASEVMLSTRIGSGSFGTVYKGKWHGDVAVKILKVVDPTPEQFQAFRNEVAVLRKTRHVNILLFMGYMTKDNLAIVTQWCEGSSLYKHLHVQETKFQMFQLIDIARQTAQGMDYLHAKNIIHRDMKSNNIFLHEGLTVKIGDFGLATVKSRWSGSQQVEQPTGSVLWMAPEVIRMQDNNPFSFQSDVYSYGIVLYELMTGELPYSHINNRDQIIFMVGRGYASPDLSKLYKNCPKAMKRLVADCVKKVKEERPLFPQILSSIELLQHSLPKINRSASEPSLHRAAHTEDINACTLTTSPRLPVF
Chain of CYP2C9 (P11712 whole entry): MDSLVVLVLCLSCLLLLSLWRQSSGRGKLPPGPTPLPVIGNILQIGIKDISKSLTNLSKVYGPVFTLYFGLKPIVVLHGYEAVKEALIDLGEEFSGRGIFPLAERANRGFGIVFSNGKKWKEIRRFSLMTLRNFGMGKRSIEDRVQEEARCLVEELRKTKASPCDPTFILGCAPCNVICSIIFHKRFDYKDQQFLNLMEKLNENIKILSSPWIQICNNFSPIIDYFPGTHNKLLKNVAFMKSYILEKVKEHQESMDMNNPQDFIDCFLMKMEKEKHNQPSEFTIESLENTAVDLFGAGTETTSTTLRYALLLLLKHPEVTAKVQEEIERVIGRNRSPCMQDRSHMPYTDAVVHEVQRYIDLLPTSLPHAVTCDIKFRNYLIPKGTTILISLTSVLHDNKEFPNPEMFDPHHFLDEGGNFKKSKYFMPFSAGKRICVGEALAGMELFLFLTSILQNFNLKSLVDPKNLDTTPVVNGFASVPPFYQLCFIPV
Chain of B-Raf V600E (P15056 whole entry V600E): as the sequence (P15056 whole entry) above, with V600E counted along it

Take `O=C(c1c(F)ccc(NS(=O)(=O)c2ccc(C(F)(F)F)cc2)c1F)c1c[nH]c2ncnc(O)c12` [P-1012, N-[2,4-Difluoro-3-(4-hydroxy-7H-pyrrolo[2,3-d]pyrimidine-5-carbonyl)-phenyl]-4-trifluoromethyl-benzenesulfonamide]: the IC50 against B-Raf [1] is more than 0.1 µM; at B-Raf V600E, more than 0.1 µM; against c-Raf-1, less than 0.1 µM; at CYP1A2 (read-out: Cyp IC50 1A2, CYP1A2, substrate CEC) it was more than 10 µM; at CYP2C19 (setting [4]), more than 10 µM; at CYP2C9 (setting [5]), more than 10 µM. In addition, the IC50 on CYP2D6, on CYP3A4(BFC) (setting [6]) and on CYP3A4(BQ) (setting [7]) was more than 10 µM throughout. In addition, in the data set on B-Raf [2], the “Biochemical activity ratio B/V600E” value is listed as 0.1-10. Besides, in the data set on B-Raf [2], the “Biochemical activity ratio B/C” value is listed as 0.1-10. Also, the “Biochemical activity ratio V600E/C” value at B-Raf V600E is reported as more than 10. The “turbidity threshold (L, M, H) 1.4” value in [3] is “M (moderate solubility if the threshold concentration is 31.3 μM to 250 μM)”. Also, in data set [3], the “turbidity threshold (L, M, H) 4.5” value is “M (moderate solubility if the threshold concentration is 31.3 μM to 250 μM)”. The “turbidity threshold (L, M, H) 6.8” value in data set [3] was “H (high solubility if the threshold concentration is >250 μm)”. Moreover, in data set [3], the “turbidity threshold (L, M, H) 7.4” value is given as “H (high solubility if the threshold concentration is >250 μm)”.

As for `CCCc1ccc(S(=O)(=O)Nc2ccc(F)c(C(=O)c3c[nH]c4ncnc(NC5CC5)c34)c2F)cc1` [P-1040, N-[3-(4-cyclopropylamino-7H-pyrrolo[2,3-d]pyrimidine-5-carbonyl)-2,4-difluoro-phenyl]-4-propyl-benzenesulfonamide], the IC50 on B-Raf [1] is less than 0.1 µM; on B-Raf V600E, more than 0.1 µM; against c-Raf-1 it was less than 0.1 µM; against CYP1A2 (human, 15 min), more than 10 µM; on CYP2C19 (setting [4]) it was more than 10 µM; on CYP2C9 (setting [5]), more than 10 µM. Besides, the IC50 on CYP2D6 is more than 10 µM; on CYP3A4(BFC) it was 5 to 10 µM; at CYP3A4(BQ) (setting [7]) it was more than 10 µM. The “Biochemical activity ratio B/V600E” value in the data set with B-Raf [2] was 0.1-10. Moreover, in the data set with B-Raf [2], the “Biochemical activity ratio B/C” value is 0.1-10. On B-Raf V600E, the “Biochemical activity ratio V600E/C” value is listed as more than 10. For the same compound, the “turbidity threshold (L, M, H) 1.4” value in [3] is “M (moderate solubility if the threshold concentration is 31.3 μM to 250 μM)”. In addition, in data set [3], the “turbidity threshold (L, M, H) 4.5” value was “L (low solubility if the threshold concentration is <31.3 μM)”. Further, the “turbidity threshold (L, M, H) 6.8” value in data set [3] is “L (low solubility if the threshold concentration is <31.3 μM)”. Also, the “turbidity threshold (L, M, H) 7.4” value in [3] is recorded as “L (low solubility if the threshold concentration is <31.3 μM)”.

As to `CN1CCC(Nc2ncnc3[nH]cc(C(=O)c4c(F)ccc(NS(=O)(=O)c5ccc(C(F)(F)F)cc5)c4F)c23)CC1` [P-1057, N-{2,4-Difluoro-3-[4-(1-methyl-piperidin-4-ylamino)-7H-pyrrolo[2,3-d]pyrimidine-5-carbonyl]-phenyl}-4-trifluoromethyl-benzenesulfonamide], the IC50 is less than 0.1 µM against B-Raf [1]; more than 0.1 µM against B-Raf V600E; less than 0.1 µM at c-Raf-1; more than 10 µM at CYP1A2 (human, 15 min); more than 10 µM at CYP2C19 (setting [4]); more than 10 µM on CYP2C9 (setting [5]). Moreover, the IC50 on CYP2D6, at CYP3A4(BFC) (setting [6]) and at CYP3A4(BQ) (setting [7]) was more than 10 µM throughout. In the data set with B-Raf [2], the “Biochemical activity ratio B/V600E” value was 0.1-10. The “Biochemical activity ratio B/C” value in the data set with B-Raf [2] was 0.1-10. At B-Raf V600E, the “Biochemical activity ratio V600E/C” value is on record as more than 10. For the same compound, in [3], the “turbidity threshold (L, M, H) 1.4” value was “H (high solubility if the threshold concentration is >250 μm)”. For the same compound, the “turbidity threshold (L, M, H) 4.5” value in [3] was “H (high solubility if the threshold concentration is >250 μm)”. Also, the “turbidity threshold (L, M, H) 6.8” value in [3] was “M (moderate solubility if the threshold concentration is 31.3 μM to 250 μM)”. Moreover, the “turbidity threshold (L, M, H) 7.4” value in data set [3] was “M (moderate solubility if the threshold concentration is 31.3 μM to 250 μM)”.

As to `CCCc1ccc(S(=O)(=O)Nc2ccc(F)c(C(=O)c3c[nH]c4ncnc(OC)c34)c2F)cc1` [P-1005, N-[2,4-Difluoro-3-(4-methoxy-7H-pyrrolo[2,3-d]pyrimidine-5-carbonyl)-phenyl]-4-propyl-benzenesulfonamide], the IC50 was more than 0.1 µM against B-Raf [1]; more than 0.1 µM at B-Raf V600E; less than 0.1 µM at c-Raf-1; more than 10 µM on CYP1A2 (human, 15 min); 5 to 10 µM at CYP2C19; more than 10 µM at CYP2C9 (setting [5]). For the same compound, the values for the IC50 at CYP2D6, against CYP3A4(BFC) and at CYP3A4(BQ) (setting [7]) were more than 10 µM, 5 to 10 µM and more than 10 µM, respectively. In the data set on B-Raf [2], the “Biochemical activity ratio B/V600E” value is 0.1-10. Further, the “Biochemical activity ratio B/C” value with B-Raf [2] was 0.1-10. For the same compound, the “Biochemical activity ratio V600E/C” value at B-Raf V600E was more than 10. In data set [3], the “turbidity threshold (L, M, H) 1.4” value is “H (high solubility if the threshold concentration is >250 μm)”. The “turbidity threshold (L, M, H) 4.5” value in data set [3] is reported as “L (low solubility if the threshold concentration is <31.3 μM)”. The “turbidity threshold (L, M, H) 6.8” value in data set [3] is “L (low solubility if the threshold concentration is <31.3 μM)”. Further, the “turbidity threshold (L, M, H) 7.4” value in data set [3] was “L (low solubility if the threshold concentration is <31.3 μM)”.

With `CCCS(=O)(=O)Nc1ccc(F)c(C(=O)c2c[nH]c3ncc(C#N)c(Cl)c23)c1F` [P-2004, Propane-1-sulfonic acid [3-(4-chloro-5-cyano-1H-pyrrolo[2,3-b]pyridine-3-carbonyl)-2,4-difluoro-phenyl]-amide], the IC50 against B-Raf [1] was less than 0.1 µM; on B-Raf V600E, less than 0.1 µM; on c-Raf-1, less than 0.1 µM; against CYP1A2, more than 10 µM; against CYP2C19, more than 10 µM; against CYP2C9, less than 5 µM. Besides, the half-maximal inhibitory concentration (IC50) on CYP2D6, at CYP3A4(BFC) and at CYP3A4(BQ) was more than 10 µM each time. The “Biochemical activity ratio B/V600E” value with B-Raf [2] was 0.1-10. Further, in the data set on B-Raf [2], the “Biochemical activity ratio B/C” value is given as more than 10. Further, the “Biochemical activity ratio V600E/C” value on B-Raf V600E is recorded as 0.1-10. Besides, in data set [3], the “turbidity threshold (L, M, H) 1.4” value was “L (low solubility if the threshold concentration is <31.3 μM)”. Moreover, in data set [3], the “turbidity threshold (L, M, H) 4.5” value is listed as “L (low solubility if the threshold concentration is <31.3 μM)”. For the same compound, the “turbidity threshold (L, M, H) 6.8” value in [3] is “L (low solubility if the threshold concentration is <31.3 μM)”. The “turbidity threshold (L, M, H) 7.4” value in data set [3] is recorded as “L (low solubility if the threshold concentration is <31.3 μM)”.

Turning to `CCCc1ccc(S(=O)(=O)Nc2ccc(F)c(C(=O)c3c[nH]c4ncnc(C)c34)c2F)cc1` [P-1007, N-[2,4-Difluoro-3-(4-methyl-7H-pyrrolo[2,3-d]pyrimidine-5-carbonyl)-phenyl]-4-propyl-benzenesulfonamide], the IC50 on B-Raf [1] was less than 0.1 µM; against B-Raf V600E it was more than 0.1 µM; against c-Raf-1 it was less than 0.1 µM; against CYP1A2 (human, 15 min) it was more than 10 µM; on CYP2C19 (setting [4]), more than 10 µM; at CYP2C9 (setting [5]), more than 10 µM. Besides, the IC50 on CYP2D6 is more than 10 µM; at CYP3A4(BFC), 5 to 10 µM; on CYP3A4(BQ), 5 to 10 µM. For the same compound, in the data set with B-Raf [2], the “Biochemical activity ratio B/V600E” value is 0.1-10. Further, the “Biochemical activity ratio B/C” value in the data set with B-Raf [2] is given as 0.1-10. Also, the “Biochemical activity ratio V600E/C” value on B-Raf V600E was more than 10. Further, in data set [3], the “turbidity threshold (L, M, H) 1.4” value was “L (low solubility if the threshold concentration is <31.3 μM)”. Also, in data set [3], the “turbidity threshold (L, M, H) 4.5” value is given as “L (low solubility if the threshold concentration is <31.3 μM)”. Besides, the “turbidity threshold (L, M, H) 6.8” value in data set [3] is reported as “L (low solubility if the threshold concentration is <31.3 μM)”. In addition, the “turbidity threshold (L, M, H) 7.4” value in data set [3] is given as “L (low solubility if the threshold concentration is <31.3 μM)”.

As a reminder, the IC50 is the concentration needed to halve the response being measured.

The values are drawn from patent US9617267B2, “Compounds and methods for kinase modulation, and indications therefor” (Plexxikon Inc., priority 2009, dated 2017).
